Measured values published in the CheMixHub viscosity set.
± gives the uncertainty stated by the source.

Assay: xn = mol fraction of the nth substance listed

CCCCCCCCCCCCN + C1CCCCC1
303.15 K, 101 kPa
Conditions | viscosity [mPa·s]
x2 = 0.2093 | 2.31 ± 0.025
x2 = 0.3927 | 1.948 ± 0.021
x2 = 0.5029 | 1.709 ± 0.019
x2 = 0.6032 | 1.492 ± 0.016
x2 = 0.8037 | 1.116 ± 0.012

Cc1cccc(O)c1 + C1CCCCC1
308.15 K, 101 kPa
Conditions | viscosity [mPa·s]
x1 = 0.0832 | 0.8736 ± 0.0072
x1 = 0.289 | 1.288 ± 0.01
x1 = 0.3627 | 1.541 ± 0.012
x1 = 0.4467 | 1.863 ± 0.015
x1 = 0.5201 | 2.175 ± 0.017
x1 = 0.5859 | 2.547 ± 0.021
x1 = 0.7213 | 3.745 ± 0.03
x1 = 0.8473 | 5.244 ± 0.043
x1 = 0.9032 | 6.428 ± 0.052

ClC1CCCCC1 + C1CCCCC1
viscosity [mPa·s], 101.3 kPa
Conditions | x2 = 0.095 | x2 = 0.2004 | x2 = 0.2999 | x2 = 0.3989 | x2 = 0.4989 | x2 = 0.5993 | x2 = 0.6986 | x2 = 0.8004 | x2 = 0.9006
298.15 K | 1.485 ± 0.014 | 1.394 ± 0.013 | 1.315 ± 0.012 | 1.241 ± 0.011 | 1.172 ± 0.01 | 1.106 ± 0.0096 | 1.046 ± 0.009 | 0.9893 ± 0.0085 | 0.9379 ± 0.008
313.15 K | 1.153 ± 0.011 | 1.086 ± 0.01 | 1.025 ± 0.0097 | 0.9696 ± 0.0091 | 0.9164 ± 0.0085 | 0.8667 ± 0.008 | 0.821 ± 0.0075 | 0.7771 ± 0.0071 | 0.7392 ± 0.0067

ClC1CCCCC1 + C1CCOC1
viscosity [mPa·s], 101.3 kPa
Conditions | x2 = 0.1036 | x2 = 0.2057 | x2 = 0.3029 | x2 = 0.4018 | x2 = 0.5079 | x2 = 0.6003 | x2 = 0.7026 | x2 = 0.8045 | x2 = 0.9032
298.15 K | 1.38 ± 0.009 | 1.22 ± 0.008 | 1.087 ± 0.0072 | 0.9655 ± 0.0065 | 0.8521 ± 0.0059 | 0.7631 ± 0.0054 | 0.6748 ± 0.0048 | 0.5979 ± 0.0044 | 0.5278 ± 0.004
313.15 K | 1.085 ± 0.0072 | 0.9721 ± 0.0066 | 0.8761 ± 0.006 | 0.7866 ± 0.0055 | 0.7016 ± 0.005 | 0.6344 ± 0.0046 | 0.5652 ± 0.0042 | 0.5038 ± 0.0039 | 0.4475 ± 0.0035

ClC1CCCCC1 + C1CCOCC1
viscosity [mPa·s], 101.3 kPa
Conditions | x2 = 0.1031 | x2 = 0.2 | x2 = 0.3037 | x2 = 0.4038 | x2 = 0.4996 | x2 = 0.6036 | x2 = 0.6992 | x2 = 0.8038 | x2 = 0.9034
298.15 K | 1.459 ± 0.0096 | 1.364 ± 0.0091 | 1.27 ± 0.0087 | 1.188 ± 0.0084 | 1.114 ± 0.008 | 1.04 ± 0.0077 | 0.9774 ± 0.0074 | 0.9135 ± 0.0071 | 0.8561 ± 0.0068
313.15 K | 1.141 ± 0.0077 | 1.073 ± 0.0074 | 1.002 ± 0.0071 | 0.9418 ± 0.0068 | 0.8879 ± 0.0066 | 0.8332 ± 0.0063 | 0.7853 ± 0.0061 | 0.7364 ± 0.0059 | 0.6928 ± 0.0057

Cc1cccc(O)c1 + C1COCCO1
308.15 K, 101 kPa
Conditions | viscosity [mPa·s]
x2 = 0.1 | 6.346 ± 0.076
x2 = 0.2 | 5.28 ± 0.064
x2 = 0.3 | 4.391 ± 0.054
x2 = 0.4 | 3.412 ± 0.042
x2 = 0.5 | 2.693 ± 0.033
x2 = 0.6 | 2.138 ± 0.027
x2 = 0.7 | 1.711 ± 0.021
x2 = 0.8 | 1.407 ± 0.018
x2 = 0.9 | 1.235 ± 0.016

CC(=O)c1ccc(C)cc1 + C=CC#N
308.15 K, 101 kPa
Conditions | viscosity [mPa·s]
x1 = 0.053 | 0.365 ± 0.004
x1 = 0.1107 | 0.4026 ± 0.0043
x1 = 0.1749 | 0.4516 ± 0.0047
x1 = 0.2487 | 0.511 ± 0.0052
x1 = 0.3327 | 0.5909 ± 0.0059
x1 = 0.4237 | 0.684 ± 0.0067
x1 = 0.536 | 0.8136 ± 0.0078
x1 = 0.6679 | 0.9939 ± 0.0094
x1 = 0.8181 | 1.23 ± 0.011

ClC1CCCCC1 + CC1CCCO1
viscosity [mPa·s], 101.3 kPa
Conditions | x2 = 0.0984 | x2 = 0.1994 | x2 = 0.2986 | x2 = 0.4009 | x2 = 0.4991 | x2 = 0.5995 | x2 = 0.701 | x2 = 0.802 | x2 = 0.8995
298.15 K | 1.367 ± 0.009 | 1.195 ± 0.0081 | 1.055 ± 0.0074 | 0.9325 ± 0.0067 | 0.8311 ± 0.0062 | 0.742 ± 0.0057 | 0.6638 ± 0.0053 | 0.5963 ± 0.0049 | 0.5378 ± 0.0046
313.15 K | 1.075 ± 0.0073 | 0.9535 ± 0.0067 | 0.8519 ± 0.0061 | 0.7611 ± 0.0057 | 0.6848 ± 0.0053 | 0.6167 ± 0.0049 | 0.5561 ± 0.0046 | 0.5018 ± 0.0043 | 0.4546 ± 0.004

C=Cn1cc[n+](CC(N)=O)c1.O=S(=O)([N-]S(=O)(=O)C(F)(F)F)C(F)(F)F + CC#N
viscosity [mPa·s], 100 kPa
Conditions | 298.15 K | 303.15 K | 308.15 K | 313.15 K | 318.15 K | 323.15 K
x1 = 0.1 | – | 9.97 ± 2 | 9.16 ± 1.9 | 8.17 ± 1.6 | 7.74 ± 1.6 | 7.02 ± 1.4
x1 = 0.201 | 75.29 ± 15 | 68.64 ± 14 | 59.58 ± 12 | 50.56 ± 10 | – | –
x1 = 0.3026 | – | 246.5 ± 51 | – | – | – | –
x1 = 0.4011 | 805.9 ± 180 | 683.3 ± 150 | 549.2 ± 120 | – | – | –
